{
  "source": "paper PMC6158189",
  "about": "“A pharmacological probe identifies cystathionine β-synthase as a new negative regulator for ferroptosis” (Cell Death & Disease, 2018)",
  "molecular_target": "T1, hCBS-FL wild type (293T-CBS WT) (Homo sapiens, UniProt P35520)",
  "T1 construct": "human CBS or hCSE full-length (CBS-FL or CSE) was subcloned into pGEX-KG, pcDNA3 or pCDH vector; expressed in transfected cells",
  "T1 sequence (P35520 1-551)": "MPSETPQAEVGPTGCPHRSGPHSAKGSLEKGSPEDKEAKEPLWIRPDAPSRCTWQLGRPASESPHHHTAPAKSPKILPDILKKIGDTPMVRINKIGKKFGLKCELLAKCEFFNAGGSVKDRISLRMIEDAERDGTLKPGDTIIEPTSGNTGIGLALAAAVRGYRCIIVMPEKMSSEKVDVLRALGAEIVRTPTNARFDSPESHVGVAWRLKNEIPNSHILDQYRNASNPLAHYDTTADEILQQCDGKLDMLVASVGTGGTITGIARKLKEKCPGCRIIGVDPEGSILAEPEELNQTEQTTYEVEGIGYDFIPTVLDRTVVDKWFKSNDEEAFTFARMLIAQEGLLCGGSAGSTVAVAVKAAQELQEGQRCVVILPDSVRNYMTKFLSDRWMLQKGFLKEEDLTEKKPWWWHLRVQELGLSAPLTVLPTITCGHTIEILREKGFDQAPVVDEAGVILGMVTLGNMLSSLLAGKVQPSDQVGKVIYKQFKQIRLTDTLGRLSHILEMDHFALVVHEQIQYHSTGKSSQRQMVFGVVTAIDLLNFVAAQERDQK",
  "experiment": "H2S in HEK293T cells stably expressing hCBS WT (AzMC probe)",
  "assay_type": "cell-based",
  "settings": "8 h, 293T-CBS WT",
  "experimental": "HEK293T cells were transiently transfected with empty vector (EV, i and ii), hCBS-FL (iii and iv) or hCSE (v and vi) plasmids, followed by incubation with DMSO (i–iii and v) or 10 μM CH004 (iv and vi) for 8 h before staining with 50 μM AzMC, a H2S-specific probe (“Materials and Methods” section). For larger fluorescent and bright-field images, please see Supplementary Figure 4. The expression levels of hCBS or hCSE in HEK293T cells after transient transfections were determined by western blotting using an anti-CBS antibody (3E1, 1:2000; Abnova) or anti-CSE antibody (1:500, GeneTex). The densities of protein bands for hCBS or hCSE in the blots were quantified with the ImageJ software (National Institutes of Health, Bethesda, MD, USA) and expressed as ratios of respective control (EV group). All immunoblots are representative of at least two independent experiments using GAPDH as the loading control. The fluorescent images of the H2S (blue) were accordingly quantified (“Materials and Methods” section) with ImageJ. […] The DMSO groups of the controls (CTR), which are expressing of hCBS or hCSE, were normalized to 100% and the levels of H2S in CH004-treated or EV group are shown as relative percentages. c, d CH004 dose-dependently suppresses the activity of hCBS WT without affecting the activity of CH004-insensitive mutant. HEK293T cells stably expressing EV (i and ii), hCBS-FL wild type (293T-CBS WT; iii–v) or CBS-FL mutant (293T-CBS Q222A, vi–viii) were treated with DMSO (i–iii and vi), 5 μM CH004 (iv, vii) or 10 μM CH004 (v, viii) for 8 h before staining with the AzMC. For larger fluorescent and bright-field images, please see Supplementary Figures 5–6. […] The DMSO groups of the controls (CTR), which are expressing of hCBS-FL wt or Q222A mutant, were normalized to 100% and the levels of H2S in CH004-treated or EV group are shown as relative percentages. A representative fluorescence image from three independent experiments is shown. Means ± SDS (n = 3). Statistical analyses were performed on the raw data for each group by one-way (b) or two-way (d) ANOVA with Bonferroni post-tests. ***p < 0.001. Bars, 50 μm\nH2S levels in living cells were detected using a H2S-specific fluorescent probe according to a protocol described previously[31],[55]. To measure H2S in transiently transfected HEK293T cells, the cells were seeded on poly-D-Lys-coated coverslips (Thermo Scientific, Waltham, MA, USA) in 12-well plates at a density of ~ 1 × 10^5 cells per well, and hCBS or hCSE plasmids were transiently transfected by X-tremeGENE HP DNA Transfection Reagent according to the manufacturer’s protocol (Roche, Basel, Switzerland). […] After incubation with 50 μM AzMC at 37 °C for 30 min, the cells were washed 4 times with PBS, and the fluorescent images were recorded with excitation by 405 nm laser by using a A1Si (Nikon) confocal microscope. The intensity of the blue fluorescent signals, indicating the amount of H2S, was quantified by ImageJ software (NIH, Bethesda, ML). The H2S signal was then corrected for the background signal detected in HEK293T cells transiently or stably expressing of empty vector (HEK293T-EV) and normalized by the corresponding cell-occupying area and compared with the control (DMSO group, 100%). Similarly, the H2S signal in HepG2 cells was quantified by AzMC staining, corrected for the background signal outside the cells, normalized by the cell area and expressed as percentages of DMSO control (100%). […]",
  "data": [
    {"smiles": "Cn1nc(Cc2ccccc2)nc2c(=O)n(C)c(=O)nc1-2", "note": "[CH004, 3-benzyl-1,6-dimethylpyrimido[5,4-e][1,2,4]triazine-5,7(1H,6H)-dione]", "values": [
      {"measurement": "decrease in H2S", "setting": "5 μM", "result": 22, "unit": "%"},
      {"measurement": "decrease in H2S", "setting": "10 μM", "result": 43, "unit": "%"}
    ]}
  ]
}
